Patent US7612064B2, “Sulfopyrroles” (Takeda Pharmaceutical Company Limited, priority 2003, dated 2009)

How the values were obtained:
HeLa = assay: MTS proliferation assay; format: cell-based, human; conditions: 72 h
How it was run: (§1)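 Proliferation is assessed by MTS conversion, measured as 492 nm absorption. Cells are treated for three days (72 h) with four compound concentrations between 0.3 and 10 μM.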

Jurkat = assay: MTS proliferation assay; format: cell-based, human; conditions: 72 h
How it was run: as §1

Jily = assay: MTS proliferation assay; format: cell-based; conditions: 72 h
How it was run: as §1

MRC5 = assay: MTS proliferation assay; format: cell-based; conditions: MRC5, 72 h
How it was run: as §1

[1] = Hoechst 33342 nuclear staining; format: cell-based; conditions: for Hoechst 33342 nuclear staining score, H460: H460 cells; for Hoechst 33342 nuclear staining score, HeLa: HeLa cells; for Hoechst 33342 nuclear staining score, Jily: Jily cells; for Hoechst 33342 nuclear staining score, Jurkat: Jurkat cells; for Hoechst 33342 nuclear staining score, MRC5: MRC5 cells;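 for all read-outs here: apoptotic nuclei scored 0 none 1 weak under 50% of cells 2 strong over 50% of cells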
How it was run: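 After a further 30 min incubation, plates were inspected on a standard inverted fluorescence microscope. The fraction of apoptotic nuclei and other apoptosis-specific morphology were scored as 0 for no activity, 1 for weak activity in less than 50% of the cells, and 2 for strong activity in more than 50% of the cells.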

Compound	IC50 (HeLa) [µM]	IC50 (Jurkat) [µM]	IC50 (Jily) [µM]	IC50 (MRC5) [µM]	Hoechst 33342 nuclear staining score, H460 ([1]; conc 0.1)	Hoechst 33342 nuclear staining score, H460 ([1]; conc 0.3)	Hoechst 33342 nuclear staining score, H460 ([1]; conc 1)	Hoechst 33342 nuclear staining score, H460 ([1]; conc 3)	Hoechst 33342 nuclear staining score, HeLa ([1]; conc 0.1)	Hoechst 33342 nuclear staining score, HeLa ([1]; conc 0.3)	Hoechst 33342 nuclear staining score, HeLa ([1]; conc 1)	Hoechst 33342 nuclear staining score, HeLa ([1]; conc 3)	Hoechst 33342 nuclear staining score, Jily ([1]; conc 0.1)	Hoechst 33342 nuclear staining score, Jily ([1]; conc 0.3)	Hoechst 33342 nuclear staining score, Jily ([1]; conc 1)	Hoechst 33342 nuclear staining score, Jily ([1]; conc 3)	Hoechst 33342 nuclear staining score, Jurkat ([1]; conc 0.1)	Hoechst 33342 nuclear staining score, Jurkat ([1]; conc 0.3)	Hoechst 33342 nuclear staining score, Jurkat ([1]; conc 1)	Hoechst 33342 nuclear staining score, Jurkat ([1]; conc 3)	further results
COc1cc(-c2cc(-c3cncc(CNC(C)=O)c3)cn2S(=O)(=O)c2ccc(C)cc2)cc(OC)c1OC [Example 60]	< 1	< 1	< 1	< 1	0	0	2 (strong activity comprising more than 50% of the cells)	2 (strong activity comprising more than 50% of the cells)	0	0	1 (weak activity comprising less than 50% of the cells)	2 (strong activity comprising more than 50% of the cells)	0	0	2 (strong activity comprising more than 50% of the cells)	2 (strong activity comprising more than 50% of the cells)	0	2 (strong activity comprising more than 50% of the cells)	2 (strong activity comprising more than 50% of the cells)	2 (strong activity comprising more than 50% of the cells)	Hoechst 33342 nuclear staining score, MRC5 ([1]; conc 0.1): 0; Hoechst 33342 nuclear staining score, MRC5 ([1]; conc 0.3): 0; Hoechst 33342 nuclear staining score, MRC5 ([1]; conc 1): 0; Hoechst 33342 nuclear staining score, MRC5 ([1]; conc 3): 2 (strong activity comprising more than 50% of the cells); Hoechst 33342 nuclear staining score, PBLs ([1]; conc 0.1): 0; Hoechst 33342 nuclear staining score, PBLs ([1]; conc 0.3): 0; Hoechst 33342 nuclear staining score, PBLs ([1]; conc 1): 0; Hoechst 33342 nuclear staining score, PBLs ([1]; conc 3): 0
COc1cc(-c2cc(-c3cncc(C(=O)NC(C)CO)c3)cn2S(=O)(=O)c2ccc(C)cc2)cc(OC)c1OC.Cl (stereo not shown) [Example 63]	< 1	< 1	< 1	< 1	0	0	0	0	0	0	0	2 (strong activity comprising more than 50% of the cells)	0	0	0	0	0	0	2 (strong activity comprising more than 50% of the cells)	2 (strong activity comprising more than 50% of the cells)	Hoechst 33342 nuclear staining score, MRC5 ([1]; conc 0.1): 0; Hoechst 33342 nuclear staining score, MRC5 ([1]; conc 0.3): 0; Hoechst 33342 nuclear staining score, MRC5 ([1]; conc 1): 0; Hoechst 33342 nuclear staining score, MRC5 ([1]; conc 3): 0; Hoechst 33342 nuclear staining score, PBLs ([1]; conc 0.1): 0; Hoechst 33342 nuclear staining score, PBLs ([1]; conc 0.3): 0; Hoechst 33342 nuclear staining score, PBLs ([1]; conc 1): 0; Hoechst 33342 nuclear staining score, PBLs ([1]; conc 3): 0
COc1cc(-c2cc(-c3cncc(C(=O)NCCN4CCOCC4)c3)cn2S(=O)(=O)c2ccc(C)cc2)cc(OC)c1OC.Cl [Example 64]	< 1	< 1	< 1	< 1	0	0	2 (strong activity comprising more than 50% of the cells)	2 (strong activity comprising more than 50% of the cells)	0	0	2 (strong activity comprising more than 50% of the cells)	2 (strong activity comprising more than 50% of the cells)	0	0	2 (strong activity comprising more than 50% of the cells)	2 (strong activity comprising more than 50% of the cells)	0	0	2 (strong activity comprising more than 50% of the cells)	2 (strong activity comprising more than 50% of the cells)	Hoechst 33342 nuclear staining score, MRC5 ([1]; conc 0.1): 0; Hoechst 33342 nuclear staining score, MRC5 ([1]; conc 0.3): 0; Hoechst 33342 nuclear staining score, MRC5 ([1]; conc 1): 2 (strong activity comprising more than 50% of the cells); Hoechst 33342 nuclear staining score, MRC5 ([1]; conc 3): 2 (strong activity comprising more than 50% of the cells); Hoechst 33342 nuclear staining score, PBLs ([1]; conc 0.1): 0; Hoechst 33342 nuclear staining score, PBLs ([1]; conc 0.3): 0; Hoechst 33342 nuclear staining score, PBLs ([1]; conc 1): 0; Hoechst 33342 nuclear staining score, PBLs ([1]; conc 3): 0
COCCCNC(=O)c1cncc(-c2cc(-c3cc(OC)c(OC)c(OC)c3)n(S(=O)(=O)c3ccc(C)cc3)c2)c1.Cl [Example 65]	< 1	< 1	< 1	< 1	0	0	2 (strong activity comprising more than 50% of the cells)	2 (strong activity comprising more than 50% of the cells)	0	0	0	2 (strong activity comprising more than 50% of the cells)	0	0	2 (strong activity comprising more than 50% of the cells)	2 (strong activity comprising more than 50% of the cells)	0	0	2 (strong activity comprising more than 50% of the cells)	2 (strong activity comprising more than 50% of the cells)	Hoechst 33342 nuclear staining score, MRC5 ([1]; conc 0.1): 0; Hoechst 33342 nuclear staining score, MRC5 ([1]; conc 0.3): 0; Hoechst 33342 nuclear staining score, MRC5 ([1]; conc 1): 2 (strong activity comprising more than 50% of the cells); Hoechst 33342 nuclear staining score, MRC5 ([1]; conc 3): 2 (strong activity comprising more than 50% of the cells); Hoechst 33342 nuclear staining score, PBLs ([1]; conc 0.1): 0; Hoechst 33342 nuclear staining score, PBLs ([1]; conc 0.3): 0; Hoechst 33342 nuclear staining score, PBLs ([1]; conc 1): 0; Hoechst 33342 nuclear staining score, PBLs ([1]; conc 3): 0
